Read-outs that look alike come from different tables or passages of the source.
Experiments:
[1] = system: HCV genotype 1a (H77 strain) replicon in HUH-7 cells; assay: HCV replicon luciferase reporter assay, genotype 1a; format: cell-based; conditions: Hepatitis C virus, Huh-7, 72 h, 3 days incubation, read-out: LE_1a (EC50, range)
Method in brief: (§1)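 Replicon inhibition for both genotypes was measured as Renilla luciferase signal (EnduRen, 7.5 μM final, 2 h) after 3-day, 37° C exposure of replicon-bearing HUH-7 cells in 4% FCS DMEM, 0.5% DMSO. The 1b construct carries S1179I; the 1a H77 construct carries P1496L and S2204I. Twenty-point, 3-fold dilutions were fitted four-parametrically for EC50, and CC50 was taken from multiplexed Cell Titer-Blue.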

[2] = system: HCV genotype 1b (Con1) replicon in HUH-7 cells; assay: HCV replicon luciferase reporter assay, genotype 1b; format: cell-based; conditions: Hepatitis C virus, Huh-7, 72 h, 3 days incubation, read-out: LE_1b (EC50, range)
Method in brief: as §1

[3] = HCV genotype 1a replicon luciferase assay, range class
[4] = HCV genotype 1b replicon luciferase assay, range class
[5] = HCV genotype 1a replicon luciferase
[6] = HCV genotype 1b replicon luciferase
[7] = GETYPE1A, HCV genotype 1a replicon luciferase
[8] = GETYPE1B, HCV genotype 1b replicon luciferase

| Structure (SMILES) | EC50 [1, 3] [nM] | EC50 [2, 4] [nM] | EC50 [1, 5] [nM] | EC50 [2, 6] [nM] | further results |
| --- | --- | --- | --- | --- | --- |
| COc1cc(F)cc2c(O[C@@H]3C[C@H]4C(=O)N[C@]5(C(=O)NS(=O)(=O)C6(C)CC6)C[C@H]5/C=C\CC[C@@H](C)C[C@@H](C)[C@H](NC(=O)OC(C)(C)C)C(=O)N4C3)nccc12 [Compound 3154, tert-butyl ((2R,6S,7R,9R,13aS,14aR,16aS,Z)-2-((7-fluoro-5-methoxyisoquinolin-1-yl)oxy)-7,9-dimethyl-14a-(((1-methylcyclopropyl)sulfonyl)carbamoyl)-5,16-dioxo-1,2,3,5,6,7,8,9,10,11,13a,14,14a,15,16,16a-hexadecahydrocyclopropa[e]pyrrolo[1,2-a][1,4]diazacyclopentadecin-6-yl)carbamate] | < 5.46 | < 5.46 |  |  |  |
| CC(C)Oc1cc2c(Cl)cccc2c(O[C@@H]2C[C@H]3C(=O)N[C@]4(C(=O)NS(=O)(=O)C5(C)CC5)C[C@H]4/C=C\CC[C@H](C)C[C@@H](C)[C@H](NC(=O)OC(C)(C)C(F)(F)F)C(=O)N3C2)n1 [Compound 1101, 1,1,1-trifluoro-2-methylpropan-2-yl((2R,6S,7R,9S,13aS,14aR,16aS,Z)-2-((5-chloro-3-isopropoxyisoquinolin-1-yl)oxy)-7,9-dimethyl-14a-(((1-methylcyclopropyl)sulfonyl)carbamoyl)-5,16-dioxo-1,2,3,5,6,7,8,9,10,11,13a,14,14a,15,16,16a-hexadecahydrocyclopropa[e]pyrrolo[1,2-a][1,4]diazacyclopentadecin-6-yl)carbamate] | 4.82 to 103 | 4.82 to 103 |  |  |  |
| COc1cnc(O[C@@H]2C[C@H]3C(=O)N[C@]4(C(=O)NS(=O)(=O)C5(F)CC5)C[C@H]4/C=C\CC[C@@H](C)C[C@@H](C)[C@H](NC(=O)OC(C)(C)C(F)(F)F)C(=O)N3C2)c2ccccc12 [Compound 14, 1,1,1-trifluoro-2-methylpropan-2-yl((2R,6S,7R,9R,13aS,14aR,16aS,Z)-14a-(((1-fluorocyclopropyl)sulfonyl)carbamoyl)-2-((4-methoxyisoquinolin-1-yl)oxy)-7,9-dimethyl-5,16-dioxo-1,2,3,5,6,7,8,9,10,11,13a,14,14a,15,16,16a-hexadecahydrocyclopropa[e]pyrrolo[1,2-a][1,4]diazacyclopentadecin-6-yl)carbamate] | < 5.46 | < 5.46 |  |  |  |
| CC[C@@H]1C[C@H](C)CC/C=C\[C@@H]2C[C@@]2(C(=O)NS(=O)(=O)C2(CF)CC2)NC(=O)[C@@H]2C[C@@H](Oc3ncc(N4CCOCC4)c4ccccc34)CN2C(=O)[C@H]1NC(=O)OC(C)(C)C(C)(F)F [Compound 5447, 3,3-difluoro-2-methylbutan-2-yl((2R,6S,7R,9R,13aS,14aR,16aS,Z)-7-ethyl-14a-(((1-(fluoromethyl)cyclopropyl)sulfonyl)carbamoyl)-9-methyl-2-((4-morpholinoisoquinolin-1-yl)oxy)-5,16-dioxo-1,2,3,5,6,7,8,9,10,11,13a,14,14a,15,16,16a-hexadecahydrocyclopropa[e]pyrrolo[1,2-a][1,4]diazacyclopentadecin-6-yl)carbamate] |  |  | 1.01 to 5 | 1.01 to 5 |  |
| CC(C)Oc1ccc2c(O[C@@H]3C[C@H]4C(=O)N[C@]5(C(=O)NS(=O)(=O)C6(C)CC6)C[C@H]5/C=C\CC[C@H](C)C[C@@H](C)[C@H](NC(=O)OC(C)(C)C(F)(F)F)C(=O)N4C3)nccc2c1 [Compound 5158, 1,1,1-trifluoro-2-methylpropan-2-yl((2R,6S,7R,9S,13aS,14aR,16aS,Z)-2-((6-isopropoxyisoquinolin-1-yl)oxy)-7,9-dimethyl-14a-(((1-methylcyclopropyl)sulfonyl)carbamoyl)-5,16-dioxo-1,2,3,5,6,7,8,9,10,11,13a,14,14a,15,16,16a-hexadecahydrocyclopropa[e]pyrrolo[1,2-a][1,4]diazacyclopentadecin-6-yl)carbamate] |  |  | 4.82 to 103 | < 5.46 |  |
| COc1cc2c(N3CCOCC3)cnc(O[C@@H]3C[C@H]4C(=O)N[C@]5(C(=O)NS(=O)(=O)C6(C)CC6)C[C@H]5/C=C\CC[C@@H](C)C[C@@H](C)[C@H](NC(=O)OC(C)(C)C(F)(F)F)C(=O)N4C3)c2cc1F [Compound 4101] |  |  |  |  | EC50 [1, 7]: < 5.46 nM; EC50 [2, 8]: < 5.46 nM |
| COc1ccc2c(O[C@@H]3C[C@H]4C(=O)N[C@]5(C(=O)NS(=O)(=O)C6(CF)CC6)C[C@H]5/C=C\CC[C@@H](C)C[C@@H](C)[C@H](NC(=O)OC(C)(C)C(F)(F)F)C(=O)N4C3)ncc(F)c2c1 [Compound 4378] |  |  |  |  | EC50 [1, 7]: 1.01 to 5 nM; EC50 [2, 8]: 0.51 to 1 nM |
| COc1ccc2c(O[C@@H]3C[C@H]4C(=O)N[C@]5(C(=O)NS(=O)(=O)C6CC6)C[C@H]5/C=C\CC[C@@H](C)C[C@@H](C)[C@H](NC(=O)O[C@H](C)C(F)(F)F)C(=O)N4C3)nc(N3CCOCC3)cc2c1 [Compound 3103, (R)-1,1,1-trifluoropropan-2-yl ((2R,6S,7R,9R,13aS,14aR,16aS,Z)-14a-((cyclopropylsulfonyl)carbamoyl)-2-((6-methoxy-3-morpholinoisoquinolin-1-yl)oxy)-7,9-dimethyl-5,16-dioxo-1,2,3,5,6,7,8,9,10,11,13a,14,14a,15,16,16a-hexadecahydrocyclopropa[e]pyrrolo[1,2-a][1,4]diazacyclopentadecin-6-yl)carbamate] | < 5.46 | < 5.46 |  |  |  |
| CC(C)Oc1ccc2c(O[C@@H]3C[C@H]4C(=O)N[C@]5(C(=O)NS(=O)(=O)C6CC6)C[C@H]5/C=C\CC[C@@H](C)C[C@@H](C)[C@H](NC(=O)O[C@H](C)C(F)(F)F)C(=O)N4C3)nccc2c1 [Compound 5150, (R)-1,1,1-trifluoropropan-2-yl((2R,6S,7R,9R,13aS,14aR,16aS,Z)-14a-((cyclopropylsulfonyl)carbamoyl)-2-((6-isopropoxyisoquinolin-1-yl)oxy)-7,9-dimethyl-5,16-dioxo-1,2,3,5,6,7,8,9,10,11,13a,14,14a,15,16,16a-hexadecahydrocyclopropa[e]pyrrolo[1,2-a][1,4]diazacyclopentadecin-6-yl)carbamate] |  |  | < 5.46 | < 5.46 |  |
| COc1cc2cc(-c3ccc(OC(C)C)cc3)nc(O[C@@H]3C[C@H]4C(=O)N[C@]5(C(=O)NS(=O)(=O)C6CC6)C[C@H]5/C=C\CC[C@@H](C)C[C@@H](C)[C@H](NC(=O)O[C@@H]5C[C@@H]6C[C@@H]6C5)C(=O)N4C3)c2cc1F [Compound 3188, (1R,3r,5S)-bicyclo[3.1.0]hexan-3-yl((2R,6S,7R,9R,13aS,14aR,16aS,Z)-14a-((cyclopropylsulfonyl)carbamoyl)-2-((7-fluoro-3-(4-isopropoxyphenyl)-6-methoxyisoquinolin-1-yl)oxy)-7,9-dimethyl-5,16-dioxo-1,2,3,5,6,7,8,9,10,11,13a,14,14a,15,16,16a-hexadecahydrocyclopropa[e]pyrrolo[1,2-a][1,4]diazacyclopentadecin-6-yl)carbamate] |  |  | < 5.46 | < 5.46 |  |
| COc1cnc(O[C@@H]2C[C@H]3C(=O)N[C@]4(C(=O)NS(=O)(=O)C5CC5)C[C@H]4/C=C\CC[C@@H](C)C[C@@H](C)[C@H](NC(=O)OC(C)(C)C(F)(F)F)C(=O)N3C2)c2cccc(Cl)c12 [Compound 27, 1,1,1-trifluoro-2-methylpropan-2-yl((2R,6S,7R,9R,13aS,14aR,16aS,Z)-2-((5-chloro-4-methoxyisoquinolin-1-yl)oxy)-14a-((cyclopropylsulfonyl)carbamoyl)-7,9-dimethyl-5,16-dioxo-1,2,3,5,6,7,8,9,10,11,13a,14,14a,15,16,16a-hexadecahydrocyclopropa[e]pyrrolo[1,2-a][1,4]diazacyclopentadecin-6-yl)carbamate] | < 5.46 | < 5.46 |  |  |  |
| COc1ccc2c(O[C@@H]3C[C@H]4C(=O)N[C@]5(C(=O)NS(=O)(=O)C6(CF)CC6)C[C@H]5/C=C\CC[C@@H](C)C[C@@H](C)[C@H](NC(=O)OC(C)(C)C)C(=O)N4C3)ncc(F)c2c1 [Compound 4382, tert-butyl ((2R,6S,7R,9R,13aS,14aR,16aS,Z)-2-((4-fluoro-6-methoxyisoquinolin-1-yl)oxy)-14a-(((1-(fluoromethyl)cyclopropyl)sulfonyl)carbamoyl)-7,9-dimethyl-5,16-dioxo-1,2,3,5,6,7,8,9,10,11,13a,14,14a,15,16,16a-hexadecahydrocyclopropa[e]pyrrolo[1,2-a][1,4]diazacyclopentadecin-6-yl)carbamate] |  |  | 1.01 to 5 | 0.51 to 1 |  |
| CCCOc1cnc(O[C@@H]2C[C@H]3C(=O)N[C@]4(C(=O)NS(=O)(=O)C5CC5)C[C@H]4/C=C\CC[C@H](C)C[C@@H](C)[C@H](NC(=O)O[C@H](C)C(F)(F)F)C(=O)N3C2)c2ccccc12 [Compound 5094, (R)-1,1,1-trifluoropropan-2-yl((2R,6S,7R,9S,13aS,14aR,16aS,Z)-14a-((cyclopropylsulfonyl)carbamoyl)-7,9-dimethyl-5,16-dioxo-2-((4-propoxyisoquinolin-1-yl)oxy)-1,2,3,5,6,7,8,9,10,11,13a,14,14a,15,16,16a-hexadecahydrocyclopropa[e]pyrrolo[1,2-a][1,4]diazacyclopentadecin-6-yl)carbamate] |  |  | > 87.4 | > 87.4 |  |

— patent US9499550B2 (BRISTOL-MYERS SQUIBB COMPANY, priority 2012, dated 2016)
